How the values were obtained:
Assay in all cases: Weeding effect in post-emergence stage (greenhouse pot spray)
Type in all cases: in vivo
Abutilon theophrasti = tested on: Abutilon theophrasti
Procedure, shortened: (§1)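 Pot-grown greenhouse plants, 2-3 leaf stage; spray-tower application; formulation acetone/Tween 80 plus methyl oleate EC 1.5 liter/ha as synergist; rates 500, 250, 125, 60, 15 g a.i./ha; assessed 3 wk post-treatment as fresh weight control, n=3.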

Echinochloa crusgalli = tested on: Echinochloa crusgalli
Procedure, shortened: as §1

Digitaria sanguinalis = tested on: Digitaria sanguinalis
Procedure, shortened: as §1

Stellaria media = tested on: Stellaria media
Description: (§2) The activity level criteria for plant damage (i.e., growth control rate) are as follows:
(§3) The above growth control rates are fresh weight control rates.
(§4) Experiment on weeding effect in post-emergence stage: monocotyledonous and dicotyledonous weed seeds (Descurainia sophia, Capsella bursa-pastoris, Abutilon theophrasti, Galium aparine, Stellaria media, Lithospermum arvense, rorippa indica, Alopecurus aequalis, Beckmannia syzigachne, Sclerochloa dura, Phleum paniculatum, Bromus japonicus, Aegilops tauschii, Phalaris arundinacea, Amaranthus retroflexus, Chenopodiaceae, Commelina communis, Sonchus arvensis, convolvulus arvensis, Cirsium setosum, Solanum nigrum, Acalypha australis, Digitaria sanguinalis, Echinochloa crusgalli, Setaria viridis, Setaria glauca, Leptochloa chinensis, Monochoria vaginalis, Sagittaria trifolia, Scirpus juncoides, Cyperus rotundus, Cyperus iria, Cyperus difformis, Fimbristylis, Portulaca oleracea, Xanthium sibiricum, Pharbitis nil) and major crop seeds (wheat, corn, rice, soybean, cotton, oilseed rape, millet, sorghum, potato, sesame, ricinus) were placed in plastic pots filled with soil, then covered with 0.5-2 cm of soil, allowed to grow in a good greenhouse environment. After 2 weeks of sowing, the test plants were treated in the 2 to 3 leaf stage. The tested compounds of the present invention were respectively dissolved in acetone, then added with Tween 80 and 1.5 liter/ha of emulsifiable concentrate of methyl oleate as synergist, diluted with a certain amount of water to obtain a solution with a certain concentration, and sprayed with a spray tower onto the plants. After the application, the plants were cultured for 3 weeks in the greenhouse, and then the experimental results of the weeding were counted. The doses of the used compounds were 500, 250, 125, 60, 15 g a.i./ha, and the averages were obtained by repeating for three times.

Amaranthus retroflexus = tested on: Amaranthus retroflexus
Description: as §2, §3, §4

Structure (SMILES)	Abutilion theophrasti (activity level) (Abutilon theophrasti; Table 2, dose 250 g a.i./ha)	Echinochloa crusgah (activity level) (Echinochloa crusgalli; Table 2, dose 250 g a.i./ha)	Digitaria sanguinalis (activity level) (Digitaria sanguinalis; Table 2, dose 250 g a.i./ha)	Stellaria media (activity level) (Stellaria media; Table 2, dose 250 g a.i./ha)	Amaranthus retroflexus (activity level) (Amaranthus retroflexus; Table 2, dose 250 g a.i./ha)	Abutilion theophrasti (activity level) (Abutilon theophrasti; Table 2, dose 500 g a.i./ha)	Echinochloa crusgah (activity level) (Echinochloa crusgalli; Table 2, dose 500 g a.i./ha)	Digitaria sanguinalis (activity level) (Digitaria sanguinalis; Table 2, dose 500 g a.i./ha)	Stellaria media (activity level) (Stellaria media; Table 2, dose 500 g a.i./ha)	Amaranthus retroflexus (activity level) (Amaranthus retroflexus; Table 2, dose 500 g a.i./ha)
CCOCC[S+]([O-])c1c(C(F)(F)F)ccc(C(=O)Nc2nnc(C)o2)c1F (stereo not drawn) [Compound 1-446]	5 (Level 5: growth control rate is above 85%)	5 (Level 5: growth control rate is above 85%)	5 (Level 5: growth control rate is above 85%)	5 (Level 5: growth control rate is above 85%)	5 (Level 5: growth control rate is above 85%)	–	–	–	–	–
CC[S+]([O-])c1c(C(F)(F)F)ccc(C(=O)Nc2nnco2)c1F (stereo not drawn) [Compound 3-5]	–	–	–	–	–	5 (Level 5: growth control rate is above 85%)	5 (Level 5: growth control rate is above 85%)	5 (Level 5: growth control rate is above 85%)	5 (Level 5: growth control rate is above 85%)	5 (Level 5: growth control rate is above 85%)
Cc1nnc(NC(=O)c2ccc(C(F)(F)F)c(SCCC(F)(F)F)c2F)o1 [Compound 1-51]	–	–	–	–	–	5 (Level 5: growth control rate is above 85%)	5 (Level 5: growth control rate is above 85%)	5 (Level 5: growth control rate is above 85%)	5 (Level 5: growth control rate is above 85%)	5 (Level 5: growth control rate is above 85%)
COC(C)C[S+]([O-])c1c(C(F)(F)F)ccc(C(=O)Nc2nnc(C)o2)c1F (stereo not drawn) [Compound 1-447]	–	–	–	–	–	5 (Level 5: growth control rate is above 85%)	5 (Level 5: growth control rate is above 85%)	5 (Level 5: growth control rate is above 85%)	5 (Level 5: growth control rate is above 85%)	5 (Level 5: growth control rate is above 85%)
COCC[S+]([O-])c1c(C(F)(F)F)ccc(C(=O)Nc2nnco2)c1F (stereo not drawn) [Compound 3-57]	–	–	–	–	–	5 (Level 5: growth control rate is above 85%)	5 (Level 5: growth control rate is above 85%)	5 (Level 5: growth control rate is above 85%)	5 (Level 5: growth control rate is above 85%)	5 (Level 5: growth control rate is above 85%)
CCCC[S+]([O-])c1c(C(F)(F)F)ccc(C(=O)Nc2nnco2)c1F (stereo not drawn) [Compound 3-14]	–	–	–	–	–	5 (Level 5: growth control rate is above 85%)	5 (Level 5: growth control rate is above 85%)	5 (Level 5: growth control rate is above 85%)	5 (Level 5: growth control rate is above 85%)	5 (Level 5: growth control rate is above 85%)
O=C(Nc1nnco1)c1ccc(C(F)(F)F)c([S+]([O-])CCC(F)(F)F)c1F (stereo not drawn) [Compound 3-52]	–	–	–	–	–	5 (Level 5: growth control rate is above 85%)	5 (Level 5: growth control rate is above 85%)	5 (Level 5: growth control rate is above 85%)	5 (Level 5: growth control rate is above 85%)	5 (Level 5: growth control rate is above 85%)
C=CCC[S+]([O-])c1c(C(F)(F)F)ccc(C(=O)Nc2nnc(C)o2)c1F (stereo not drawn) [Compound 1-397]	–	–	–	–	–	5 (Level 5: growth control rate is above 85%)	5 (Level 5: growth control rate is above 85%)	5 (Level 5: growth control rate is above 85%)	5 (Level 5: growth control rate is above 85%)	5 (Level 5: growth control rate is above 85%)
CCSc1c(C(F)(F)F)ccc(C(=O)Nc2nnc(CC)o2)c1F [Compound 2-4]	–	–	–	–	–	5 (Level 5: growth control rate is above 85%)	5 (Level 5: growth control rate is above 85%)	5 (Level 5: growth control rate is above 85%)	5 (Level 5: growth control rate is above 85%)	5 (Level 5: growth control rate is above 85%)

— US20230041563A1, “N-(1,3,4-OXADIAZOL-2-YL)ARYLCARBOXAMIDES OR SALTS THEREOF, PREPARATION METHODS, HERBICIDAL COMPOSITIONS AND USES THEREOF” (priority 2018, published 2023)
